Like-named read-outs stand apart in the source and are kept apart here.
Key:
[1] = system: naproxen induced gastric lesions; experiment: Rat gastric lesion procedure (naproxen-induced); format: in vivo; conditions: co-dosed with naproxen 40 mg/kg
Protocol: Gastric lesions in rat can be induced by ingestion of a non-steroidal anti-inflammatory drug (NSAID) such as naproxen. This effect is apparent with 4 to 6 hours of administration. The therapeutic effect of two different agents on preventing NSAID-induced gastric lesions first as a mono-therapy and then as a combination therapy using a fractional dose approach to test for additivity. The two agents tested include 1) 3-[3-tert-Butylsulfanyl-1-[4-(6-ethoxy-pyridin-3-yl)-benzyl]-5-(pyridin-2-ylmethoxy)-1H-indol-2-yl]-2,2-dimethyl-propionic acid (prepared according to the procedures described in US patent publication no. 2007/0105866; see Compound 2-94), a 5-lipoxygenase activating protein (FLAP) inhibitor and 2) isosorbide mononitrate (a nitric oxide donor).
Procedures: Gastric lesions were induced in 24-hour fasted male Sprague-Dawley rats (weighing 200-300 grams) by administering a single oral dose of naproxen (40 mg/kg), in the mono-therapy phase of the study Compound 2-94 was prepared at 1, 10 and 30 mg/kg and was co-dosed with naproxen. Separately, isosorbide mononitrate was prepared at 3, 10, 30 and 100 mg/kg and was co-dosed with naproxen. The ED50 (defined as the dose to produce the half maximal effect) from this phase of the experiment was used to calculate doses for the combination therapy phase of the study in which Compound 2-94 and isosorbide mononitrate were formulated together and co-dosed with Naproxen. Fractional doses tested include; 2, 1, ½ and ¼ of the ED50 values. In all conditions, four hours alter dosing, rats were anesthetized with inhaled isoflurane and the stomachs removed and cut along the lesser curvature and rinsed thoroughly of any contents using tap water. Each stomach was then pinned down flat with the mucosal layer side up and a digit image captured at an exposure of 10×. These images were then used to determine the total lesion area in mm^2. A Lesion Index (LI) was calculated for each individual stomach by the formula:
LI=[lesion area (mm^2)/total stomach area (mm^2)]×100
Individual drug effects were then determined by calculating the percent inhibition of LI for each dose group relative to the naproxen-alone group using the formula:
% inhibition=100−[LItreatment/LIcontrol(naproxen)×100]
(ED50 of Compound 2-94 with isosorbide mononitrate)/(ED50 ft for Compound 2-94 given alone)+(ED50 of isosorbide mononitrate with Compound 2-94)/(ED50 for isosorbide given alone).
The fractional value indicates what proportion of the single ED50 value was accounted for by the corresponding ED50 value of the combination.

[2] = intravenous, cited from earlier work
[3] = Compound 2-94 and isosorbide mononitrate formulated together, read-out: fraction dose ED50 (dose of the component in the combination)
[4] = oral, 4 h after dosing, estimated, read-out: ED50, inhibition of naproxen induced gastric lesions (mono-therapy)

CCOc1ccc(-c2ccc(Cn3c(CC(C)(C)C(=O)O)c(SC(C)(C)C)c4cc(OCc5ccccn5)ccc43)cc2)cn1 [Compound 2-94, 3-[3-tert-Butylsulfanyl-1-[4-(6-ethoxy-pyridin-3-yl)-benzyl]-5-(pyridin-2-ylmethoxy)-1H-indol-2-yl]-2,2-dimethyl-propionic acid]
ED50 [1, 3]: 2.5 mg/kg | ED50 [1, 4]: 5 mg/kg

nitroprusside
decrease of pulmonary vascular resistance (PVR), mean ([2]; 15 patients): 32% | mean PAP after treatment ([2]; 15 patients, decreased from 29.6): 24.2 mm Hg | mean systemic arterial pressure after treatment ([2]; 15 patients, reduced from 89.6, unacceptably low level): 70 mm Hg | effect on pulmonary gas exchange ([2]; by increasing QVA/QT): markedly impairs pulmonary gas exchange

O=[N+]([O-])O[C@@H]1CO[C@H]2[C@@H]1OC[C@@H]2O [isosorbide mononitrate]
ED50 [1, 3]: 7.5 mg/kg | ED50 [1, 4]: 15 mg/kg
